EC50 data for 19 compounds are collected here from patent US20230118688A1, “1H-PYRAZOLO[4,3-d]PYRIMIDINE COMPOUNDS AS TOLL-LIKE RECEPTOR 7 (TLR7) AGONISTS” (BRISTOL-MYERS SQUIBB COMPANY, priority 2020, published 2023).

One may read the EC50 as the concentration at which the effect is half-maximal.

This assay addresses T1, human TLR7 (Homo sapiens, UniProt Q9NYK1).
T1 construct: host or cells: HEK-Blue TLR7 cells (engineered human embryonic kidney cells)
T1 sequence (Q9NYK1 27-1049): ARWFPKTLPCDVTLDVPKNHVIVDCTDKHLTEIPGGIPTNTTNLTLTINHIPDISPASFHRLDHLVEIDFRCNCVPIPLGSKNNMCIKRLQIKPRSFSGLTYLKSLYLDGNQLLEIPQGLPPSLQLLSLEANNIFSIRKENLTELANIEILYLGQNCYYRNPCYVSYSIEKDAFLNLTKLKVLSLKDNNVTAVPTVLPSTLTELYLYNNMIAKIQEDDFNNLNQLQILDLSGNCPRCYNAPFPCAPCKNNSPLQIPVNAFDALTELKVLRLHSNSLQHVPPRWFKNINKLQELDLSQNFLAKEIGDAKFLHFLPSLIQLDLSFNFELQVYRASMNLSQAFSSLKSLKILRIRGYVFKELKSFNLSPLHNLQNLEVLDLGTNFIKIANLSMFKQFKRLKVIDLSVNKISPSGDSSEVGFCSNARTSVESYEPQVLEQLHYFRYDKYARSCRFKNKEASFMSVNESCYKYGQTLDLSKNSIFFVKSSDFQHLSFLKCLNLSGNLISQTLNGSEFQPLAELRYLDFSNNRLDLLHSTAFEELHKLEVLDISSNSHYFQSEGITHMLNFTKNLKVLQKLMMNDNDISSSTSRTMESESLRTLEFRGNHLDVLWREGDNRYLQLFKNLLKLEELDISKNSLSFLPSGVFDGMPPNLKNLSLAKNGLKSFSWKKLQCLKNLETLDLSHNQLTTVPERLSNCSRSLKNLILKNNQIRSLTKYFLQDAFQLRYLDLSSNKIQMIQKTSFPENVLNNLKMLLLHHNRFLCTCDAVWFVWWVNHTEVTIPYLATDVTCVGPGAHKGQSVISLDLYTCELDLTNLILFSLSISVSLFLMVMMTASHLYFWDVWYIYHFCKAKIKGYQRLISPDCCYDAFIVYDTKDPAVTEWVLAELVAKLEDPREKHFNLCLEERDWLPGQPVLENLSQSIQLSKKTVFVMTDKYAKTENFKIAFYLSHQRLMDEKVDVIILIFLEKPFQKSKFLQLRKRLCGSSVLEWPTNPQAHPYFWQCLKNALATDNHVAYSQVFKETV
Briefly: Human TLR7 agonist activity reporter assay (HEK-Blue TLR7 cells, SEAP reporter). In kind it is cell-based. The settings on record: 18 h treatment, average where assay repeated, Table A1, read-out: hTLR7 Agonism EC50. The procedure:
This procedure describes a method for assaying human TLR7 (hTLR7) agonist activity of the compounds disclosed in this specification.
HEK-Blue™ TLR7 cells were added to each well of a 384-well tissue-culture plate (15,000 cells per well) and incubated 16-18 h at 37° C., 5% CO2. Compounds (100 nl) were dispensed into wells containing the HEK-Blue™ TLR cells and the treated cells were incubated at 37° C., 5% CO2. After 18 h treatment ten microliters of freshly-prepared Quanti-Blue™ reagent (Invivogen) was added to each well, incubated for 30 min (37° C., 5% CO2) and SEAP levels measured using an Envision plate reader (OD=620 nm). The half maximal effective concentration values (EC50; compound concentration which induced a response halfway between the assay baseline and maximum) were calculated.
For orientation: Reporter assays use an easily measured gene product as a stand-in for the process of interest.
With `CCCCNc1nc(N)nc2cnn(Cc3cc(CNC4CCOCC4)ccc3OC)c12` [Compound 101, N7-butyl-1-[(2-methoxy-5-{[(oxan-4-yl)amino]-methyl}phenyl)methyl]-1H-pyrazolo[4,3-d]pyrimidine-5,7-diamine], the EC50 worked out at 352 nM. `CCCCNc1nc(N)nc2cnn(Cc3cc(CN4CCC5CCC(C5)C4)ccc3OC)c12` (stereo not shown) [Compound 102, 1-{[5-({3-azabicyclo-[4.2.1]nonan-3-yl}methyl)-2-methoxyphenyl]methyl}-N7-butyl-1H-pyrazolo[4,3-d]pyrimidine-5,7-diamine]: the EC50 was found to be 658 nM. Consider `CCCCNc1nc(N)nc2cnn(Cc3cc(CN4CCC5CCC(C5)C4)ccc3OC)c12` (stereo not shown) [Compound 103, 1-{[5-({3-azabicyclo-[4.2.1]nonan-3-yl}methyl)-2-methoxyphenyl]methyl}-N7-butyl-1H-pyrazolo[4,3-d]pyrimidine-5,7-diamine], for which the EC50 was 193 nM. Next, `CCCCNc1nc(N)nc2cnn(Cc3cc(CN4CC5CCCC(C5)C4)ccc3OC)c12` [Compound 104, 1-{[5-({3-azabicyclo-[3.3.1]nonan-3-yl}methyl)-2-methoxyphenyl]methyl}-N7-butyl-1H-pyrazolo[4,3-d]pyrimidine-5,7-diamine]: 630 nM; `CCCCNc1nc(N)nc2cnn(Cc3cc(CN4CC5CCCCCC54)ccc3OC)c12` (stereo not shown) [Compound 106, 1-{[5-({8-azabicyclo-[5.2.0]nonan-8-yl}methyl)-2-methoxyphenyl]methyl}-N7-butyl-1H-pyrazolo[4,3-d]pyrimidine-5,7-diamine]: 502 nM; `CCCCNc1nc(N)nc2cnn(Cc3cc(CN4CC5CCCC(C4)C5O)ccc3OC)c12` (stereo not shown) [Compound 107, 3-[(3-{[5-amino-7-(butyl-amino)-1H-pyrazolo[4,3-d]pyrimidin-1-yl]methyl}-4-methoxyphenyl)methyl]-3-aza bicyclo[3.3.1]nonan-9-ol]: 750 nM.

Consider `CCCCNc1nc(N)nc2cnn(Cc3cc(CN4CC(O)C4)ccc3OC)c12` [Compound 108, 1-[(3-{[5-amino-7-(butyl-amino)-1H-pyrazolo[4,3-d]pyrimidin-1-yl]methyl}-4-methoxyphenyl)me-thyl]azetidin-3-ol], for which the 50% effective concentration (EC50) worked out at 146 nM. Next, `CCCCNc1nc(N)nc2cnn(Cc3cc(CN4CCN(C)CC4)ccc3OC)c12` [Compound 109, N7-butyl-1-({2-methoxy-5-[(4-methylpiperazin-1-yl)methyl]phenyl}methyl)-1H-pyrazolo[4,3-d] pyrimidine-5,7-diamine]: 51.3 nM; `CCCCNc1nc(N)nc2cnn(Cc3cc(CNC45CC(C4)C5)ccc3OC)c12` [Compound 110, 1-({5-[({bicyclo[1.1.1]-pentan-1-yl}amino)methyl]-2-methoxyphenyl}-methyl)-N7-butyl-1H-pyrazolo[4,3-d]pyrimidine-5,7-diamine]: 447 nM.

For the compound `CCCCNc1nc(N)nc2cnn(Cc3cc(CNC4CC5(CC5)C4)ccc3OC)c12` [Compound 111, N7-butyl-1-({2-methoxy-5-[({spiro[2.3]hexan-5-yl}amino)methyl]phenyl}methyl)-1H-pyrazolo[4,3-d]pyrimidine-5,7-diamine], the EC50 is 358 nM. Then `CCCCNc1nc(N)nc2cnn(Cc3cc(CNC(C)(C)C)ccc3OC)c12` [Compound 112], with 249 nM. Consider `CCCCNc1nc(N)nc2cnn(Cc3cc(CN4CC5CCS(=O)(=O)C5C4)ccc3OC)c12` (stereo not shown) [Compound 113, 5-[(3-{[5-amino-7-(butyl-amino)-1H-pyrazolo[4,3-d]pyrimidin-1-yl]methyl}-4-methoxyphenyl)methyl]-hexahydro-2H-1λ6-thieno-[2,3-c]pyrrole-1,1-dione], for which the concentration for a half-maximal effect (EC50) turned out to be 493 nM. Then `CCCCNc1nc(N)nc2cnn(Cc3cc(CN4CCC4)ccc3OC)c12` [Compound 115, 1-({5-[(azetidin-1-yl)methyl]-2-methoxyphenyl}-methyl)-N7-butyl-1H-pyrazolo[4,3-d]pyrimidine-5,7-diamine], with 172 nM. On to `CCC[C@@H](CCO)Nc1nc(N)nc2cnn(Cc3cc(CN[C@H]4CCOC[C@H]4O)ccc3OC)c12` [Compound 179, (3S,4S)-4-[({3-[(5-amino-7-{[(3S)-1-hydroxyhexan-3-yl]amino}-1H-pyrazolo[4,3-d]pyrimidin-1-yl)methyl]-4-methoxyphenyl}methyl)-amino]oxan-3-ol], for which the EC50 worked out at 405 nM. Take `CCC[C@@H](CCO)Nc1nc(N)nc2cnn(Cc3cc(CN[C@@H]4COCC[C@H]4O)ccc3OC)c12` [Compound 180, (3R,4R)-3-[({3-[(5-amino-7-{[(3S)-1-hydroxyhexan-3-yl]amino}-1H-pyrazolo[4,3-d]pyrimidin-1-yl)methyl]-4-methoxyphenyl}methyl)-amino]oxan-4-ol]: the EC50 was determined as 213 nM. Then `CCC[C@@H](CCO)Nc1nc(N)nc2cnn(Cc3cc(CN[C@@H]4COC[C@H]4O)ccc3OC)c12` [Compound 181, (3S,4R)-4-[({3-[(5-amino-7-{[(3S)-1-hydroxyhexan-3-yl]amino}-1H-pyrazolo[4,3-d]pyrimidin-1-yl)methyl]-4-methoxyphenyl}methyl)-amino]oxolan-3-ol], with 308 nM.

In the case of `CCC[C@@H](CCO)Nc1nc(N)nc2cnn(Cc3cc(CN[C@H]4COCC[C@@H]4O)ccc3OC)c12` [Compound 182, (3S,4S)-3-[({3-[(5-amino-7-{[(3S)-1-hydroxyhexan-3-yl]amino}-1H-pyrazolo[4,3-d]pyrimidin-1-yl)methyl]-4-methoxyphenyl}methyl)-amino]oxan-4-ol], the EC50 was determined as 197 nM. With `CCC[C@@H](CCO)Nc1nc(N)nc2cnn(Cc3cc(CN[C@@H]4CCOC[C@H]4O)ccc3OC)c12` [Compound 183, (3S,4R)-4-[({3-[(5-amino-7-{[(3S)-1-hydroxyhexan-3-yl]amino}-1H-pyrazolo[4,3-d]pyrimidin-1-yl)methyl]-4-methoxyphenyl}methyl)-amino]oxan-3-ol], the EC50 worked out at 479 nM. Next, `CCC[C@@H](CCO)Nc1nc(N)nc2cnn(Cc3cc(CN[C@H]4COC[C@@H]4O)ccc3OC)c12` [Compound 184]: 339 nM.
